# In patent US5698550A, “Tetralin and chroman derivatives useful in the treatment of asthma, arthritis and related diseases” (Pfizer Inc., priority 1993, dated 1997):
# Test system: PAF-induced lethality in CD1 male mice
# Test: PAF lethality assay
# Assay type: in vivo
# Conditions: Mus musculus; positive control; oral dosing 45 minutes before i.v. PAF injection; mortality compared to controls; read-out: approximate ED 50
# Method: To evaluate the compounds of the formula (I) in vivo, they are tested by the so-called PAF lethality assay procedure:
# Mice: CD1 males, all approximately the same weight (approximately 26 grams), 12 per group.
# Vehicle for oral drug dosing: EES (5% ethanol, 5% emulphor, 90% saline). Stored at room temperature.
# Drugs: For routine screening at 50 mg/kg, 20 mg drug is dissolved in 4 ml EES, using sonication in a sonicator bath or grinding in a Ten Broeck grinder to dissolve drug if necessary. If solubility is still a problem, the drug is used as a suspension.
# Vehicle for i.v. Injection: Saline with 2.5 mg/ml Bovine Serum Albumin (BSA, Sigma #A4378) and 0.05 mg/ml Propranolol (Sigma #P0884). Prepared fresh daily and kept at room temperature.
# Platelet Activating Factor (PAF): A […] stock solution is prepared by dissolving 1 mg PAF (Calbiochem #429460) in 0.18 ml ethanol. This is stored at -20° C. and is diluted in vehicle (see above) the day of use. The concentration of PAF used is calibrated so that when injected at 0.1 ml/10 grams body weight, it will kill approximately 80% of untreated controls. This is usually about […] (a 1 to 2034 dilution from stock). […]
# 45 minutes before PAF injection, mice are treated orally with drug using 0.1 ml/10 grams body weight. […] Results are expressed as percent mortality as compared to controls. […]
compound,measurement,value
O=C1CCN(c2ccccc2)N1 [Phenidone],ED50,~25 mg/kg
